Measured values: US20230348426A1, “OXOPYRROLIDINE FPR2 AGONISTS” (Bristol-Myers Squibb Company, priority 2020, published 2023)

Experiments:
human FPR2 = human FPR2 (Homo sapiens (Human), UniProt P25090); test: FPR2 cyclic adenosine monophosphate (cAMP) assay; format: cell-based; conditions: CHO cells overexpressing human FPR2; forskolin 5 µM; inhibition of cAMP production; read-out: hFPR2 cAMP2 EC50
Summary of the method: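 CHO cells overexpressing human FPR2 (2,000/well) incubated 30 min at room temperature with compound (0.020 nM–100 µM, 1% DMSO), 5 µM forskolin and 200 µM IBMX.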

human FPR1 = human FPR1 (Homo sapiens (Human), UniProt P21462); test: FPR1 cyclic adenosine monophosphate (cAMP) assay; format: cell-based; conditions: CHO cells overexpressing human FPR1; forskolin 10 µM; inhibition of cAMP production; read-out: hFPR1 cAMP EC50
Summary of the method: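 CHO cells overexpressing human FPR1 (4,000 cells/well) stimulated with 10 µM forskolin plus 200 µM IBMX in the presence of compound (0.020 nM–100 µM, 1% DMSO), 30 min at room temperature. Intracellular cAMP measured by HTRF. Inhibition of cAMP production fitted to a 4-parameter logistic equation.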

human FPR2, sequence (P25090 whole entry): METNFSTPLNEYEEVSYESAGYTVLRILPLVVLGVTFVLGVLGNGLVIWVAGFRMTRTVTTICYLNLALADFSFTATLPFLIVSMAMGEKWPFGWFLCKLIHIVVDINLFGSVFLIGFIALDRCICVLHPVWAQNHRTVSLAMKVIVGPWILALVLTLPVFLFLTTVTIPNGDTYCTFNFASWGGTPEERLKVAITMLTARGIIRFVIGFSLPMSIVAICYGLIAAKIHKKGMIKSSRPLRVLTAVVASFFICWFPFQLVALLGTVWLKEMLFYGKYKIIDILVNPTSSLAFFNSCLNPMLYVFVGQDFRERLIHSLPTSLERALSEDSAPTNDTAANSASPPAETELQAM
human FPR1, sequence (P21462 whole entry): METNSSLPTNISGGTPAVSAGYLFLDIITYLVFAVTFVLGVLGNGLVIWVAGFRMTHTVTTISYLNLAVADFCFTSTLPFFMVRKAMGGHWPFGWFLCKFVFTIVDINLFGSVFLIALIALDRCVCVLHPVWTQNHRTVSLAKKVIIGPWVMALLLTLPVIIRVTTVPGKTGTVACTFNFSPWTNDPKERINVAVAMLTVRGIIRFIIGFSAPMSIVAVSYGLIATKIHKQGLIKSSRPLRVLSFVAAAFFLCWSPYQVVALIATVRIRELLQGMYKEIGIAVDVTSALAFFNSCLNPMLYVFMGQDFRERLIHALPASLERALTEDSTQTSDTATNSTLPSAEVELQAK

Row | Structure (SMILES) | EC50 (human FPR2) [nM] | EC50 (human FPR1) [nM]
1 | COc1cc(F)c([C@@H]2CN(c3cc(C)cc(C4CCNCC4)n3)C(=O)[C@H]2NC(=O)c2ccc(OC(F)F)cc2)c(F)c1 [Example 716] | 5.7 | > 5000
2 | COc1cc(C2CCN(CC(C)(C)O)CC2)nc(N2C[C@@H](c3c(F)cc(OC)cc3F)[C@H](NC(=O)c3ccc(OC(F)F)cc3)C2=O)c1 [Example 720] | 3.9 | > 5000
3 | COc1cc(F)c([C@@H]2CN(c3cncn(C4CCN(C)C4)c3=O)C(=O)[C@H]2NC(=O)c2ccc(Cl)cc2)c(F)c1 (stereo partly shown) [Example 721] | 5.6 | > 5000

These reach a lower EC50 (human FPR2). Values come first.

Row | EC50 (human FPR2) [nM] | EC50 (human FPR1) [nM] | Structure (SMILES)
4 | 0.9 | 840 | COc1cc(F)c([C@@H]2CN(c3cccc(C4CCCNC4)n3)C(=O)[C@H]2NC(=O)c2ccc(OC(F)F)cc2)c(F)c1 (stereo partly shown) [Example 718]
5 | 1.4 | 1900 | COc1cc(F)c([C@@H]2CN(c3cccc(C4CCCNC4)n3)C(=O)[C@H]2NC(=O)c2ccc(OC(F)F)cc2)c(F)c1 (stereo partly shown) [Example 719]
